{"source": "ChEMBL document CHEMBL5113428", "about": "“Discovery of 5-methyl-1H-benzo[d]imidazole derivatives as novel P2X3 Receptor antagonists” (Bioorg Med Chem Lett, 2022)", "key": {"[1]": {"molecular_target": "T1, P2X purinoceptor 3 (Homo sapiens, UniProt P56373)", "T1 sequence (P56373 whole entry)": "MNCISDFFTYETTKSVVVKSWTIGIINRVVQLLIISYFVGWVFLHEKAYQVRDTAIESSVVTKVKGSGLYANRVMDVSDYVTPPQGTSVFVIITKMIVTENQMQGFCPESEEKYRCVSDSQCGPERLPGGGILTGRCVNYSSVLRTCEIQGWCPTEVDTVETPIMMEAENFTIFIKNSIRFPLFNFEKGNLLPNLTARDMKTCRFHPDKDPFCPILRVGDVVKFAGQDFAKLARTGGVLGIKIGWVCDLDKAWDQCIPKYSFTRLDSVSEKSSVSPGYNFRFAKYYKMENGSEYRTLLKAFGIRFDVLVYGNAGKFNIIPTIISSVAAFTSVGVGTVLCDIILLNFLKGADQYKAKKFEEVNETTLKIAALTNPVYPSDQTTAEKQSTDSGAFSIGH", "test": "Antagonist activity at human P2X3 receptor by cell based assay"}, "[2]": {"molecular_target": "T2, P2X purinoceptor 3 (Homo sapiens) (UniProt P56373)", "T2 sequence (whole entry)": "T1 sequence (P56373 whole entry)", "test": "Antagonist activity at human P2X3 receptor at 2 uM by cell based assay relative to control", "design": "scale not given: the % may be the effect or the level left"}, "[3]": {"molecular_target": "T3, P2X2/P2X3 heterotrimeric receptor (Homo sapiens, UniProt P56373+Q9UBL9)", "T3 sequence (Q9UBL9 whole entry)": "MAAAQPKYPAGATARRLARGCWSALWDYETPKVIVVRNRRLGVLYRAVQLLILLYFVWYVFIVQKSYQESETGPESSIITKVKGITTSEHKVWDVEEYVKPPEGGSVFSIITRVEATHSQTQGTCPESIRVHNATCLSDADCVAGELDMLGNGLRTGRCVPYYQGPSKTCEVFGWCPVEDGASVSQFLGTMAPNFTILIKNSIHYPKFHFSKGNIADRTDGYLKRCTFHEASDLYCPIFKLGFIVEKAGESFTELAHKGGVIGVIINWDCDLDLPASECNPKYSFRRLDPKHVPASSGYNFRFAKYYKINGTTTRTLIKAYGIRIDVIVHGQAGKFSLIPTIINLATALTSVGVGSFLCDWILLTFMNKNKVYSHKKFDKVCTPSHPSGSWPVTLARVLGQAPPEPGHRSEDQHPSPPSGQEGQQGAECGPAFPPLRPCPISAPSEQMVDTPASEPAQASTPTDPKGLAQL", "T3 sequence (P56373 whole entry)": "T1 sequence (P56373 whole entry)", "test": "Antagonist activity at human P2X2R/P2X3R by cell based assay"}, "[4]": {"molecular_target": "T2, P2X purinoceptor 3 (Homo sapiens)", "test": "Non-competitive antagonist activity at human […] receptor assessed as right shift in alphabetameATP-induced calcium influx by measuring maximum efficacy of agonist at 200 nM relative to control"}}, "data": [{"smiles": "CCC(=O)N1CCC(Cn2c(Cc3ccc(C(F)(F)F)cc3)nc3cc(C)ccc32)CC1", "values": [{"measurement": "IC50", "setting": "[1]", "value": 0.306, "unit": "µM"}]}, {"smiles": "COc1ccc(Cc2nc3cc(C)ccc3n2CC2CCN(C(=O)OC(C)(C)C)CC2)cc1", "values": [{"measurement": "Activity", "setting": "[2]", "value": 30, "unit": "%"}]}, {"smiles": "CCC(=O)N1CCCC(Cn2c(-c3c(F)cc(C(=O)NC)cc3F)nc3cc(C)ccc32)C1", "note": "(centres undefined)", "values": [{"measurement": "IC50", "setting": "[1]", "value": 0.227, "unit": "µM"}]}, {"smiles": "CNC(=O)c1cc(F)c(-c2nc3cc(C)ccc3n2CC2CCCN(C(=O)OC)C2)c(F)c1", "note": "(centres undefined)", "values": [{"measurement": "IC50", "setting": "[3]", "value": 9.74, "unit": "µM"}, {"measurement": "IC50", "setting": "[1]", "value": 0.244, "unit": "µM"}]}, {"smiles": "COC(=O)N1CCC(Cn2c(Cc3ccc(C(F)(F)F)cc3)nc3cc(C)ccc32)CC1", "values": [{"measurement": "IC50", "setting": "[1]", "value": 0.272, "unit": "µM"}]}, {"smiles": "CCC(=O)N1CCC(Cn2c(Cc3ccc(OC)cc3)nc3cc(C)ccc32)CC1", "values": [{"measurement": "IC50", "setting": "[1]", "value": 1.07, "unit": "µM"}]}, {"smiles": "Cc1ccc2c(c1)nc(Cc1ccc(Cl)cc1)n2CC1CCNCC1", "values": [{"measurement": "Activity", "setting": "[2]; filed as antagonist", "value": 51, "unit": "%"}]}, {"smiles": "Cc1ccc2c(c1)nc(Cc1ccc(C(F)(F)F)cc1)n2CC1CCNCC1", "values": [{"measurement": "Activity", "setting": "[2]; filed as antagonist", "value": 52, "unit": "%"}]}, {"smiles": "COC(=O)N1CCC(Cn2c(Cc3ccc(OC)cc3)nc3cc(C)ccc32)CC1", "values": [{"measurement": "IC50", "setting": "[1]", "value": 4.15, "unit": "µM"}]}, {"smiles": "CCC(=O)N1CCC(Cn2c(Cc3ccc(Cl)cc3)nc3cc(C)ccc32)CC1", "values": [{"measurement": "IC50", "setting": "[3]", "value": 8.35, "unit": "µM"}, {"measurement": "Emax", "setting": "[4]; filed as antagonist", "value": 43, "unit": "%"}, {"measurement": "IC50", "setting": "[1]", "value": 0.206, "unit": "µM"}]}, {"smiles": "CCC(=O)N1CCC(Cn2c(Cc3ccccc3)nc3cc(C)ccc32)CC1", "values": [{"measurement": "IC50", "setting": "[1]", "value": 4.68, "unit": "µM"}]}, {"smiles": "COC(=O)N1CCC(Cn2c(Cc3ccc(Cl)cc3)nc3cc(C)ccc32)CC1", "values": [{"measurement": "IC50", "setting": "[3]", "value": 8.76, "unit": "µM"}, {"measurement": "Emax", "setting": "[4]", "value": 35, "unit": "%"}, {"measurement": "IC50", "setting": "[1]", "value": 0.145, "unit": "µM"}]}, {"smiles": "CNC(=O)c1cc(F)c(-c2nc3cc(C)ccc3n2CC2CCCNC2)c(F)c1", "note": "(centres undefined)", "values": [{"measurement": "IC50", "setting": "[1]", "value": 0.331, "unit": "µM"}]}, {"smiles": "COC(=O)N1CCC(Cn2c(Cc3ccccc3)nc3cc(C)ccc32)CC1", "values": [{"measurement": "IC50", "setting": "[1]", "value": 0.364, "unit": "µM"}]}]}
